Results from US6344184B1, “Oral composition for inhibiting oral malodor” (priority 1999, dated 2002).
Where two headings read alike, the source gives them in different places.

Tested on: VSCs (hydrogen sulfide, methyl mercaptan) formed by bacteria in freshly collected human saliva
Assay: In vitro VSC inhibition in incubated human saliva, gas chromatography of gas phase
Format: cell-based
Protocol: In vitro experiments were performed to test the VSC-inhibiting potential of different combinations of zinc acetate and cationic antibacterial agents.
To a 1 ml sample of freshly collected human saliva in a test tube was added 10 microliter of the solutions (mouthrinses) described below. The test tubes were closed with a stopper and incubated overnight at 37° C. A control tube which contained only saliva served as a control. It is well known that large amounts of VSCs are formed in a test tube during the latter conditions, the bacteria breaking down the salivary proteins and forming VSCs from cysteine and methionine. The VSCs in the gas phase above the incubated saliva, were measured by gas chromatography in a Shimadzu 14B instrument, and hydrogen sulfide, methyl mercaptan and di-methyl sulfide were used as standard.
The solutions to be tested were: 0.3% zinc acetate, 0.025% chlorhexidine, 0.025% cetylpyridinium chloride and 0.025% benzalkonium chlorides. Subsequently the zinc acetate was combined with each of the individual antibacterial agents. All the experiments described In this paragraph were performed on the same day under Identical conditions. The concentrations chosen were based on experience from pilot experiments with different concentrations of the zinc and antibacterial agents.
An examination was conducted to investigate whether the effect of the combinations of zinc acetate and the individual antibacterial agents represented a synergistic effect. This was performed according to the method of Behrenbaum (J.lnf. Dis. 137:122-130, 1978). The fractional inhibitory concentrations (the FIC index) was calculated based on the amounts (AUC) of hydrogen sulfide and methyl mercaptan formed under different conditions. […] The FIC index was calculated from the following formula: (A+B)/A+(A+B)/B, where A+B represents the combinations of zinc and antibacterial agent, whereas A and B alone represent the individual agents.
If the FIC Index is below 1 (<1) a synergistic effect is established. If the index is like 1 (=1) an additional effect between A and B is seen, whereas an index above 1 (>1) indicates an antagonistic effect.

[1] = 10 microliter solution added to 1 ml human saliva, incubated overnight at 37° C, low AUC = strong inhibitor, control >27 mill
[2] = 10 microliter solution added to 1 ml human saliva, incubated overnight at 37° C, low AUC = strong inhibitor, control >41 mill

Compound | HS (hydrogen sulfide) AUC value (amount of VSC) [1] | MM (methyl mercaptan) AUC value (amount of VSC) [2] | HS (hydrogen sulfide) AUC value (amount of VSC) | MM (methyl mercaptan) AUC value (amount of VSC) | Effect on HS and MM in saliva, in words (incubated human saliva, versus control) | Effect on HS and MM in saliva, in words
benzalkonium chloride [Benzalk 0.025%] | 1.4 mill | 1.7 mill |  |  |  | 
CCCCCCCCCCCCCCCC[n+]1ccccc1 [CPC 0.025%, cethylpyridinium chloride] |  |  | 5.2 mill | 6.89 mill |  | 
CC(=O)O.CC(=O)O.NC(=N\CCCCCC/N=C(N)/N=C(\N)Nc1ccc(Cl)cc1)/N=C(\N)Nc1ccc(Cl)cc1 [CHX 0.025%, chlorhexidine acetate] | 443 000 AUC | 355 000 AUC |  |  | clear effect on both HS and MM in the same order of magnitude as zinc acetate | 
CC(=O)[O-].CC(=O)[O-].[Zn+2] [Zinc Ac. 0.3%, zinc acetate] | 150 000 AUC | 4 mill |  |  |  | reduced the amount of HS much more than the amount of MM
